Data from PubChem BioAssay AID2060618 (Molecular Pharmacology Branch, DTP, NCI, 2025).

System: 454973-116-R2-J3-PDC spheroids, percent test/control viability
Test: Anticancer human tumor 454973-116-R2-J3-PDC patient-derived pancreatic carcinoma cell line growth inhibition [CLK]
Settings: spheroids with HUVEC and MSC; for IC50: curve of first compound; for viability, T/C: stronger effect = lower value
Outline: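 Patient-derived tumor cells grown as complex spheroids with HUVEC endothelial cells and mesenchymal stem cells, treated with drug combinations. Concentrations descend in half-log steps from near clinical Cmax, or from 10 microM if Cmax unknown.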

[1] = second compound 0.0316 µM, first compound 0.0316 µM
[2] = second compound 0.0316 µM, first compound 0.1 µM
[3] = second compound 0.0316 µM, first compound 0.316 µM
[4] = second compound 0.0316 µM, first compound 1 µM
[5] = second compound 0.1 µM, first compound 0.0316 µM
[6] = second compound 0.1 µM, first compound 0.1 µM
[7] = second compound 0.1 µM, first compound 0.316 µM
[8] = second compound 0.1 µM, first compound 1 µM
[9] = second compound 0.316 µM, first compound 0.0316 µM
[10] = second compound 0.316 µM, first compound 0.1 µM
[11] = second compound 0.316 µM, first compound 0.316 µM
[12] = second compound 0.316 µM, first compound 1 µM
[13] = second compound 1 µM, first compound 0.0316 µM
[14] = second compound 1 µM, first compound 0.1 µM
[15] = second compound 1 µM, first compound 0.316 µM
[16] = second compound 1 µM, first compound 1 µM
[17] = second compound 3.16 µM, first compound 0.0316 µM
[18] = second compound 3.16 µM, first compound 0.1 µM
[19] = second compound 3.16 µM, first compound 0.316 µM
[20] = second compound 3.16 µM, first compound 1 µM
[21] = second compound 10 µM, first compound 0.0316 µM
[22] = second compound 10 µM, first compound 0.1 µM
[23] = second compound 10 µM, first compound 0.316 µM
[24] = second compound 10 µM, first compound 1 µM
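Note: spheroids exposed to compounds for 7 days before readout.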

## CCN1CCN(Cc2ccc(Nc3ncc(F)c(-c4cc(F)c5nc(C)n(C(C)C)c5c4)n3)nc2)CC1 + CN1CCN(c2cc(C(=O)Nc3cc4cc(-c5cnn(C)c5)ccc4cn3)ccn2)CC1
Second compound 0.0316 µM
  IC50: > 1000 nM
Second compound 0.1 µM
  IC50: > 1000 nM
Second compound 0.316 µM
  IC50: < 3.16 nM
Second compound 1 µM
  IC50: < 3.16 nM
Second compound 3.16 µM
  IC50: < 3.16 nM
Second compound 10 µM
  IC50: < 3.16 nM
Second compound 0.0316 µM, first compound 0.00316 µM
  viability, T/C: 90.9%
Second compound 0.0316 µM, first compound 0.01 µM
  viability, T/C: 93.5%
[1]
  viability, T/C: 78.7%
[2]
  viability, T/C: 79.1%
[3]
  viability, T/C: 71%
[4]
  viability, T/C: 62.2%
Second compound 0.1 µM, first compound 0.00316 µM
  viability, T/C: 77.8%
Second compound 0.1 µM, first compound 0.01 µM
  viability, T/C: 78.5%
[5]
  viability, T/C: 70.6%
[6]
  viability, T/C: 81.2%
[7]
  viability, T/C: 63.5%
[8]
  viability, T/C: 66.9%
Second compound 0.316 µM, first compound 0.00316 µM
  viability, T/C: 2.22%
Second compound 0.316 µM, first compound 0.01 µM
  viability, T/C: 3.67%
[9]
  viability, T/C: 6.55%
[10]
  viability, T/C: 7.25%
[11]
  viability, T/C: 24.6%
[12]
  viability, T/C: 13.8%
Second compound 1 µM, first compound 0.00316 µM
  viability, T/C: 0.14%
Second compound 1 µM, first compound 0.01 µM
  viability, T/C: 1.49%
[13]
  viability, T/C: 2.77%
[14]
  viability, T/C: 0.19%
[15]
  viability, T/C: 0.21%
[16]
  viability, T/C: 0.24%
Second compound 3.16 µM, first compound 0.00316 µM
  viability, T/C: 0.15%
Second compound 3.16 µM, first compound 0.01 µM
  viability, T/C: 0.31%
[17]
  viability, T/C: 0.58%
[18]
  viability, T/C: 0.16%
[19]
  viability, T/C: 0.2%
[20]
  viability, T/C: 0.28%
Second compound 10 µM, first compound 0.00316 µM
  viability, T/C: 0.13%
Second compound 10 µM, first compound 0.01 µM
  viability, T/C: 0.22%
[21]
  viability, T/C: 0.24%
[22]
  viability, T/C: 0.42%
[23]
  viability, T/C: 0.21%
[24]
  viability, T/C: 3.78%

## COC1C=CCC(C)C(C)S(=O)(=O)NC(=O)c2ccc3c(c2)N(CC2CCC21)CC1(CCCc2cc(Cl)ccc21)CO3 (centres undefined) + CNC(=O)c1ccc(Nc2nc(OC3CCCC3)c3c(-c4ccc5nc(C)oc5c4)c[nH]c3n2)c(OC)c1
Second compound 0.0316 µM
  IC50: 5340 nM
Second compound 0.1 µM
  IC50: 4570 nM
Second compound 0.316 µM
  IC50: < 31.6 nM
Second compound 1 µM
  IC50: < 31.6 nM
Second compound 3.16 µM
  IC50: < 31.6 nM
Second compound 10 µM
  IC50: < 31.6 nM
[1]
  viability, T/C: 99.4%
[2]
  viability, T/C: 104%
[3]
  viability, T/C: 93.9%
[4]
  viability, T/C: 95%
Second compound 0.0316 µM, first compound 3.16 µM
  viability, T/C: 86.8%
Second compound 0.0316 µM, first compound 10 µM
  viability, T/C: 6.26%
[5]
  viability, T/C: 91.8%
[6]
  viability, T/C: 98.8%
[7]
  viability, T/C: 92.4%
[8]
  viability, T/C: 84.3%
Second compound 0.1 µM, first compound 3.16 µM
  viability, T/C: 70.9%
Second compound 0.1 µM, first compound 10 µM
  viability, T/C: 8.61%
[9]
  viability, T/C: 48.2%
[10]
  viability, T/C: 53.7%
[11]
  viability, T/C: 42%
[12]
  viability, T/C: 46.1%
Second compound 0.316 µM, first compound 3.16 µM
  viability, T/C: 46.3%
Second compound 0.316 µM, first compound 10 µM
  viability, T/C: 11.5%
[13]
  viability, T/C: 30.2%
[14]
  viability, T/C: 23.3%
[15]
  viability, T/C: 14.2%
[16]
  viability, T/C: 14.4%
Second compound 1 µM, first compound 3.16 µM
  viability, T/C: 17.6%
Second compound 1 µM, first compound 10 µM
  viability, T/C: 14.9%
[17]
  viability, T/C: 24.1%
[18]
  viability, T/C: 17.4%
[19]
  viability, T/C: 11.2%
[20]
  viability, T/C: 11.9%
Second compound 3.16 µM, first compound 3.16 µM
  viability, T/C: 13.9%
Second compound 3.16 µM, first compound 10 µM
  viability, T/C: 11.8%
[21]
  viability, T/C: 23.7%
[22]
  viability, T/C: 21.5%
[23]
  viability, T/C: 12.1%
[24]
  viability, T/C: 9.9%
Second compound 10 µM, first compound 3.16 µM
  viability, T/C: 8.86%
Second compound 10 µM, first compound 10 µM
  viability, T/C: 9.25%
